ChEMBL document CHEMBL1201861, “Genomics of Drug Sensitity in Cancer screening data, Wellcome Trust Sanger Institute”

Tests used:
COR-L23 = test: cells; type: functional, cell-based, Homo sapiens; conditions: Homo sapiens, COR-L23;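 further: cell viability assay measuring how strongly compounds suppress growth of COR-L23 cells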
Description: SANGER: Inhibition of human COR-L23 cell growth in a cell viability assay.

D-566MG = test: cells; type: functional, cell-based, Homo sapiens; conditions: Homo sapiens, D-566MG
DOK = test: cells; type: functional, cell-based, Homo sapiens; conditions: Homo sapiens, DOK;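 further: cell viability assay read-out, values reflect inhibition of cell growth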
Description: SANGER: Inhibition of human DOK cell growth in a cell viability assay.

GCT = test: cells; type: functional, cell-based, Homo sapiens; conditions: Homo sapiens, GCT;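 further: GCT cell line proliferation inhibition, read out with a cell viability assay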
Description: SANGER: Inhibition of human GCT cell growth in a cell viability assay.

HCC1806 = test: cells; type: functional, cell-based, Homo sapiens; conditions: Homo sapiens, HCC1806;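 further: growth inhibition of the cancer cell line, determined with a cell viability assay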
Description: SANGER: Inhibition of human HCC1806 cell growth in a cell viability assay.

HLE = test: cells; type: functional, cell-based, Homo sapiens; conditions: Homo sapiens, HLE;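 further: growth inhibition of human HLE cells, read out by a cell viability assay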
Description: SANGER: Inhibition of human HLE cell growth in a cell viability assay.

HO-1-N-1 = test: cells; type: functional, cell-based, Homo sapiens; conditions: Homo sapiens, HO-1-N-1;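 further: growth inhibition of human HO-1-N-1 cells, read out with a cell viability assay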
Description: SANGER: Inhibition of human HO-1-N-1 cell growth in a cell viability assay.

HuP-T4 = test: cells; type: functional, cell-based, Homo sapiens; conditions: Homo sapiens, HuP-T4;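 further: cell viability assay measuring how much HuP-T4 cell growth is inhibited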
Description: SANGER: Inhibition of human HuP-T4 cell growth in a cell viability assay.

KYSE-410 = test: cells; type: functional, cell-based, Homo sapiens; conditions: Homo sapiens, KYSE-410;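 further: growth inhibition of KYSE-410 cells, measured through a cell viability readout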
Description: SANGER: Inhibition of human KYSE-410 cell growth in a cell viability assay.

LU-99A = test: cells; type: functional, cell-based, Homo sapiens; conditions: Homo sapiens, LU-99A;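 further: growth inhibition of LU-99A cells, read out with a cell viability assay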
Description: SANGER: Inhibition of human LU-99A cell growth in a cell viability assay.

M059J = test: cells; type: functional, cell-based, Homo sapiens; conditions: Homo sapiens, M059J;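 further: growth inhibition of M059J cells, read out with a cell viability assay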
Description: SANGER: Inhibition of human M059J cell growth in a cell viability assay.

MDA-MB-453 = test: cells; type: functional, cell-based, Homo sapiens; conditions: Homo sapiens, MDA-MB-453
Description: SANGER: Inhibition of human MDA-MB-453 cell growth in a cell viability assay.

NCI-H2030 = test: cells; type: functional, cell-based, Homo sapiens; conditions: Homo sapiens, NCI-H2030;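 further: growth inhibition of human NCI-H2030 cells, read out by a cell viability assay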
Description: SANGER: Inhibition of human NCI-H2030 cell growth in a cell viability assay.

NCI-H2405 = test: cells; type: functional, cell-based, Homo sapiens; conditions: Homo sapiens, NCI-H2405;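 further: growth inhibition of the human cell line, read out with a cell viability assay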
Description: SANGER: Inhibition of human NCI-H2405 cell growth in a cell viability assay.

NCI-H441 = test: cells; type: functional, cell-based, Homo sapiens; conditions: Homo sapiens, NCI-H441;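 further: growth inhibition of NCI-H441 cells, read out with a cell viability assay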
Description: SANGER: Inhibition of human NCI-H441 cell growth in a cell viability assay.

NCI-H630 = test: cells; type: functional, cell-based, Homo sapiens; conditions: Homo sapiens, NCI-H630;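 further: growth inhibition of NCI-H630 cells, read out with a cell viability assay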
Description: SANGER: Inhibition of human NCI-H630 cell growth in a cell viability assay.

NUGC-3 = test: cells; type: functional, cell-based, Homo sapiens; conditions: Homo sapiens, NUGC-3;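 further: growth inhibition of human NUGC-3 cells, read out with a cell viability assay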
Description: SANGER: Inhibition of human NUGC-3 cell growth in a cell viability assay.

OVCAR-3 = test: cells; type: functional, cell-based, Homo sapiens; conditions: Homo sapiens, OVCAR-3;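 further: growth inhibition of human OVCAR-3 cells, determined by a cell viability assay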
Description: SANGER: Inhibition of human OVCAR-3 cell growth in a cell viability assay.

RD = test: cells; type: functional, cell-based, Homo sapiens; conditions: Homo sapiens, RD
Description: SANGER: Inhibition of human RD cell growth in a cell viability assay.

RERF-LC-MS = test: cells; type: functional, cell-based, Homo sapiens; conditions: Homo sapiens, RERF-LC-MS;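 further: growth inhibition of human RERF-LC-MS cells, read out by a cell viability assay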
Description: SANGER: Inhibition of human RERF-LC-MS cell growth in a cell viability assay.

RPMI-7951 = test: cells; type: functional, cell-based, Homo sapiens; conditions: Homo sapiens, RPMI-7951
Description: SANGER: Inhibition of human RPMI-7951 cell growth in a cell viability assay.

SAS = test: cells; type: functional, cell-based, Homo sapiens; conditions: Homo sapiens, SAS;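 further: growth inhibition of SAS cells, read out with a cell viability assay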
Description: SANGER: Inhibition of human SAS cell growth in a cell viability assay.

SCC-25 = test: cells; type: functional, cell-based, Homo sapiens; conditions: Homo sapiens, SCC-25;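 further: growth inhibition of SCC-25 cells, measured with a cell viability assay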
Description: SANGER: Inhibition of human SCC-25 cell growth in a cell viability assay.

SK-N-AS = test: cells; type: functional, cell-based, Homo sapiens; conditions: Homo sapiens, SK-N-AS;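 further: growth inhibition of human SK-N-AS cells, measured with a cell viability assay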
Description: SANGER: Inhibition of human SK-N-AS cell growth in a cell viability assay.

SW1463 = test: cells; type: functional, cell-based, Homo sapiens; conditions: Homo sapiens, SW1463;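 further: growth inhibition of SW1463 cells, determined with a cell viability assay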
Description: SANGER: Inhibition of human SW1463 cell growth in a cell viability assay.

SW1710 = test: cells; type: functional, cell-based, Homo sapiens; conditions: Homo sapiens, SW1710;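 further: growth inhibition of SW1710 cells, determined with a cell viability assay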
Description: SANGER: Inhibition of human SW1710 cell growth in a cell viability assay.

SW48 = test: cells; type: functional, cell-based, Homo sapiens; conditions: Homo sapiens, SW48;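 further: growth inhibition of SW48 cells, read out with a cell viability assay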
Description: SANGER: Inhibition of human SW48 cell growth in a cell viability assay.

SW948 = test: cells; type: functional, cell-based, Homo sapiens; conditions: Homo sapiens, SW948;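 further: growth inhibition of SW948 cells, read out with a cell viability assay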
Description: SANGER: Inhibition of human SW948 cell growth in a cell viability assay.

ABC-1 = test: cells; type: functional, cell-based, Homo sapiens; conditions: Homo sapiens, ABC-1;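 further: growth inhibition of human ABC-1 cells, read out by a cell viability assay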
Description: SANGER: Inhibition of human ABC-1 cell growth in a cell viability assay.

AU565 = test: cells; type: functional, cell-based, Homo sapiens; conditions: Homo sapiens, AU565;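 further: cell viability assay measuring growth inhibition of human AU565 cells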
Description: SANGER: Inhibition of human AU565 cell growth in a cell viability assay.

BEN = test: cells; type: functional, cell-based, Homo sapiens; conditions: Homo sapiens, BEN;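 further: growth inhibition of the BEN cell line, read out with a cell viability assay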
Description: SANGER: Inhibition of human BEN cell growth in a cell viability assay.

CAL-39 = test: cells; type: functional, cell-based, Homo sapiens; conditions: Homo sapiens, CAL-39;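 further: cell viability assay measuring growth inhibition of CAL-39 cells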
Description: SANGER: Inhibition of human CAL-39 cell growth in a cell viability assay.

CAL-72 = test: cells; type: functional, cell-based, Homo sapiens; conditions: Homo sapiens, CAL-72;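 further: cell viability assay measuring inhibition of proliferation in the CAL-72 cell line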
Description: SANGER: Inhibition of human CAL-72 cell growth in a cell viability assay.

U-118-MG = test: cells; type: functional, cell-based, Homo sapiens; conditions: Homo sapiens, U-118-MG
Description: SANGER: Inhibition of human U-118-MG cell growth in a cell viability assay.

UACC-62 = test: cells; type: functional, cell-based, Homo sapiens; conditions: Homo sapiens, UACC-62;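 further: growth inhibition of human UACC-62 cells, read out by a cell viability assay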
Description: SANGER: Inhibition of human UACC-62 cell growth in a cell viability assay.

CAMA-1 = test: cells; type: functional, cell-based, Homo sapiens; conditions: Homo sapiens, CAMA-1;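 further: growth inhibition of CAMA-1 cells, read out with a cell viability assay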
Description: SANGER: Inhibition of human CAMA-1 cell growth in a cell viability assay.

COLO-678 = test: cells; type: functional, cell-based, Homo sapiens; conditions: Homo sapiens, COLO-678
Description: SANGER: Inhibition of human COLO-678 cell growth in a cell viability assay.

HCC1599 = test: cells; type: functional, cell-based, Homo sapiens; conditions: Homo sapiens, HCC1599;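 further: growth inhibition of HCC1599 cells, read out in a cell viability assay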
Description: SANGER: Inhibition of human HCC1599 cell growth in a cell viability assay.

LC4-1 = test: cells; type: functional, cell-based, Homo sapiens; conditions: Homo sapiens, LC4-1;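 further: growth inhibition of LC4-1 cells, read out with a cell viability assay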
Description: SANGER: Inhibition of human LC4-1 cell growth in a cell viability assay.

LP-1 = test: cells; type: functional, cell-based, Homo sapiens; conditions: Homo sapiens, LP-1;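 further: growth inhibition of human LP-1 cells, with the read-out taken from a cell viability assay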
Description: SANGER: Inhibition of human LP-1 cell growth in a cell viability assay.

MHH-CALL-2 = test: cells; type: functional, cell-based, Homo sapiens; conditions: Homo sapiens, MHH-CALL-2;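 further: growth inhibition of the cell line, read out in a cell viability assay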
Description: SANGER: Inhibition of human MHH-CALL-2 cell growth in a cell viability assay.

NCI-H1417 = test: cells; type: functional, cell-based, Homo sapiens; conditions: Homo sapiens, NCI-H1417;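 further: human NCI-H1417 cells, growth inhibition determined with a cell viability readout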
Description: SANGER: Inhibition of human NCI-H1417 cell growth in a cell viability assay.

NCI-H1436 = test: cells; type: functional, cell-based, Homo sapiens; conditions: Homo sapiens, NCI-H1436;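 further: growth suppression of human NCI-H1436 cells, determined with a cell viability readout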
Description: SANGER: Inhibition of human NCI-H1436 cell growth in a cell viability assay.

NCI-H322M = test: cells; type: functional, cell-based, Homo sapiens; conditions: Homo sapiens, NCI-H322M;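 further: cell viability assay measuring inhibition of growth of human NCI-H322M cells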
Description: SANGER: Inhibition of human NCI-H322M cell growth in a cell viability assay.

RL = test: cells; type: functional, cell-based, Homo sapiens; conditions: Homo sapiens, RL
Description: SANGER: Inhibition of human RL cell growth in a cell viability assay.

ST486 = test: SANGER: Inhibition of human ST486 cell growth in a cell viability assay.; type: functional, cell-based; conditions: Homo sapiens, ST486
SU-DHL-1 = test: SANGER: Inhibition of human SU-DHL-1 cell growth in a cell viability assay.; type: functional, cell-based; conditions: Homo sapiens, SU-DHL-1
23132-87 = test: cells; type: functional, cell-based, Homo sapiens; conditions: Homo sapiens
Description: SANGER: Inhibition of human 23132-87 cell growth in a cell viability assay.

CESS = test: SANGER: Inhibition of human CESS cell growth in a cell viability assay.; type: functional, cell-based; conditions: Homo sapiens, CESS

COc1cc2c(Nc3ccc(NC(=O)c4ccccc4)cc3)ncnc2cc1OCCCN1CCOCC1
IC50 (COR-L23): > 4000 nM
IC50 (D-566MG): 1790 nM
IC50 (DOK): > 4000 nM
IC50 (GCT): 3770 nM
IC50 (HCC1806): > 4000 nM
IC50 (HLE): > 4000 nM
IC50 (HO-1-N-1): 2150 nM
IC50 (HuP-T4): > 4000 nM
IC50 (KYSE-410): > 4000 nM
IC50 (LU-99A): > 4000 nM
IC50 (M059J): > 4000 nM
IC50 (MDA-MB-453): > 4000 nM
IC50 (NCI-H2030): > 4000 nM
IC50 (NCI-H2405): > 4000 nM
IC50 (NCI-H441): > 4000 nM
IC50 (NCI-H630): > 4000 nM
IC50 (NUGC-3): 3850 nM
IC50 (OVCAR-3): > 4000 nM
IC50 (RD): > 4000 nM
IC50 (RERF-LC-MS): > 4000 nM
IC50 (RPMI-7951): > 4000 nM
IC50 (SAS): > 4000 nM
IC50 (SCC-25): > 4000 nM
IC50 (SK-N-AS): > 4000 nM
IC50 (SW1463): > 4000 nM
IC50 (SW1710): > 4000 nM
IC50 (SW48): 1230 nM
IC50 (SW948): > 4000 nM
IC50 (ABC-1): 1400 nM
IC50 (AU565): > 4000 nM
IC50 (BEN): > 4000 nM
IC50 (CAL-39): > 4000 nM
IC50 (CAL-72): > 4000 nM
IC50 (U-118-MG): > 4000 nM
IC50 (UACC-62): > 4000 nM
IC50 (CAMA-1): > 4000 nM
IC50 (COLO-678): > 4000 nM

N#Cc1c(O)c2c(-c3ccc(-c4ccccc4O)cc3)csc2[nH]c1=O
IC50 (COR-L23): > 1020 nM
IC50 (DOK): > 1020 nM
IC50 (GCT): > 1020 nM
IC50 (HCC1599): 278 nM
IC50 (HCC1806): > 1020 nM
IC50 (HLE): > 1020 nM
IC50 (HO-1-N-1): > 1020 nM
IC50 (HuP-T4): > 1020 nM
IC50 (KYSE-410): > 1020 nM
IC50 (LC4-1): 563 nM
IC50 (LP-1): > 1020 nM
IC50 (LU-99A): > 1020 nM
IC50 (M059J): > 1020 nM
IC50 (MDA-MB-453): > 1020 nM
IC50 (MHH-CALL-2): > 1020 nM
IC50 (NCI-H1417): 439 nM
IC50 (NCI-H1436): 590 nM
IC50 (NCI-H2030): > 1020 nM
IC50 (NCI-H2405): > 1020 nM
IC50 (NCI-H322M): > 1020 nM
IC50 (NCI-H441): > 1020 nM
IC50 (NCI-H630): > 1020 nM
IC50 (NUGC-3): > 1020 nM
IC50 (OVCAR-3): > 1020 nM
IC50 (RD): > 1020 nM
IC50 (RERF-LC-MS): > 1020 nM
IC50 (RL): > 1020 nM
IC50 (RPMI-7951): > 1020 nM
IC50 (SAS): > 1020 nM
IC50 (SCC-25): > 1020 nM
IC50 (SK-N-AS): > 1020 nM
IC50 (ST486): 135 nM
IC50 (SU-DHL-1): > 1020 nM
IC50 (SW1463): > 1020 nM
IC50 (SW1710): > 1020 nM
IC50 (SW48): > 1020 nM
IC50 (SW948): > 1020 nM
IC50 (23132-87): > 1020 nM
IC50 (ABC-1): > 1020 nM
IC50 (AU565): > 1020 nM
IC50 (BEN): > 1020 nM
IC50 (CAL-39): > 1020 nM
IC50 (CAL-72): > 1020 nM
IC50 (U-118-MG): > 1020 nM
IC50 (UACC-62): > 1020 nM
IC50 (CAMA-1): > 1020 nM
IC50 (CESS): 101 nM
IC50 (COLO-678): > 1020 nM

CC1(C)CNc2cc(NC(=O)c3cccnc3NCc3ccncc3)ccc21 [MOTESANIB]
IC50 (COR-L23): > 2000 nM
IC50 (D-566MG): > 2000 nM
IC50 (DOK): > 2000 nM
IC50 (GCT): > 2000 nM
IC50 (HCC1806): > 2000 nM
IC50 (HLE): > 2000 nM
IC50 (HO-1-N-1): > 2000 nM
IC50 (HuP-T4): > 2000 nM
IC50 (KYSE-410): > 2000 nM
IC50 (LU-99A): > 2000 nM
IC50 (M059J): > 2000 nM
IC50 (MDA-MB-453): > 2000 nM
IC50 (NCI-H2030): > 2000 nM
IC50 (NCI-H2405): > 2000 nM
IC50 (NCI-H441): > 2000 nM
IC50 (NCI-H630): > 2000 nM
IC50 (NUGC-3): > 2000 nM
IC50 (OVCAR-3): > 2000 nM
IC50 (RD): > 2000 nM
IC50 (RERF-LC-MS): > 2000 nM
IC50 (RPMI-7951): > 2000 nM
IC50 (SAS): > 2000 nM
IC50 (SCC-25): > 2000 nM
IC50 (SK-N-AS): > 2000 nM
IC50 (SW1463): > 2000 nM
IC50 (SW1710): > 2000 nM
IC50 (SW48): > 2000 nM
IC50 (SW948): > 2000 nM
IC50 (ABC-1): > 2000 nM
IC50 (AU565): > 2000 nM
IC50 (BEN): > 2000 nM
IC50 (CAL-39): > 2000 nM
IC50 (CAL-72): > 2000 nM
IC50 (U-118-MG): > 2000 nM
IC50 (UACC-62): > 2000 nM
IC50 (CAMA-1): > 2000 nM
IC50 (COLO-678): > 2000 nM

Cn1cnc2c(F)c(Nc3ccc(Br)cc3Cl)c(C(=O)NOCCO)cc21 [SELUMETINIB]
IC50 (COR-L23): 3960 nM
IC50 (D-566MG): > 4000 nM
IC50 (DOK): 147 nM
IC50 (GCT): > 4000 nM
IC50 (HCC1806): > 4000 nM
IC50 (HLE): > 4000 nM
IC50 (HO-1-N-1): 741 nM
IC50 (HuP-T4): 195 nM
IC50 (KYSE-410): > 4000 nM
IC50 (LU-99A): > 4000 nM
IC50 (M059J): > 4000 nM
IC50 (MDA-MB-453): > 4000 nM
IC50 (NCI-H2405): > 4000 nM
IC50 (NCI-H441): > 4000 nM
IC50 (NCI-H630): > 4000 nM
IC50 (NUGC-3): 1200 nM
IC50 (OVCAR-3): > 4000 nM
IC50 (RD): > 4000 nM
IC50 (RERF-LC-MS): > 4000 nM
IC50 (RPMI-7951): > 4000 nM
IC50 (SAS): > 4000 nM
IC50 (SCC-25): > 4000 nM
IC50 (SK-N-AS): 92.8 nM
IC50 (SW1463): > 4000 nM
IC50 (SW1710): > 4000 nM
IC50 (SW48): > 4000 nM
IC50 (SW948): > 4000 nM
IC50 (ABC-1): > 4000 nM
IC50 (AU565): > 4000 nM
IC50 (BEN): > 4000 nM
IC50 (CAL-39): 332 nM
IC50 (CAL-72): > 4000 nM
IC50 (U-118-MG): > 4000 nM
IC50 (UACC-62): > 4000 nM
IC50 (CAMA-1): > 4000 nM
IC50 (COLO-678): 1620 nM
